Measured values taken from patent US20080200563A1, “Use of Compounds Containing Thiol Groups as Efflux Pump Inhibitors” (ThioMatrix Forschungs- und Beratungs- GmbH, priority 2004, published 2008).

Target: T1, efflux pump P-glycoprotein (Cavia porcellus, UniProt H0VLE6)
T1 construct: The small intestine of guinea pigs was immediately removed after sacrificing animals, cut lengthwise and rinsed; from tissue; host or cells: guinea pig small intestinal mucosa mounted in Ussing chambers
Assay: Permeation studies with rhodamine 123 across guinea pig small intestinal mucosa in Ussing chambers (efflux pump inhibition)
Assay type: in vitro ADME
Conditions: 0.5% (m/v)
Experimental: The small intestine of guinea pigs was immediately removed after sacrificing animals, cut lengthwise and rinsed with sterile 0.9% sodium chloride solution. Thereafter it was mounted in Ussing chambers. The incubation medium was a 50 mM Bis-Tris (bis[2-hydroxyethyl]imino-tris[hydroxymethyl]methane) pH 6.0 buffer containing 250 mM NaCl, 2.6 mM MgSO4, 10 mM KCl, 40 mM glucose and 50 mM NaHCO3. […] J Pharm Sei. […] At predetermined time points samples were withdrawn from the acceptor chamber—facing to the basolateral site of the mucosa and replaced by fresh incubation medium. […] In addition all permeation studies described above were also performed with the mucosa being mounted in the opposite direction, so that the donor compartment is facing the basolateral site of the mucosa. In parallel, the same experiments were performed with the only difference that the donor- and acceptor compartment contained additionally glutathione in a concentration of 0.5%.
In order to compare the inhibitory effect of glutathione and/or polythiol-compounds with well-known inhibitors on efflux pumps of the gastrointestinal mucosa, they were tested in parallel.

T1 sequence (H0VLE6 1-1243): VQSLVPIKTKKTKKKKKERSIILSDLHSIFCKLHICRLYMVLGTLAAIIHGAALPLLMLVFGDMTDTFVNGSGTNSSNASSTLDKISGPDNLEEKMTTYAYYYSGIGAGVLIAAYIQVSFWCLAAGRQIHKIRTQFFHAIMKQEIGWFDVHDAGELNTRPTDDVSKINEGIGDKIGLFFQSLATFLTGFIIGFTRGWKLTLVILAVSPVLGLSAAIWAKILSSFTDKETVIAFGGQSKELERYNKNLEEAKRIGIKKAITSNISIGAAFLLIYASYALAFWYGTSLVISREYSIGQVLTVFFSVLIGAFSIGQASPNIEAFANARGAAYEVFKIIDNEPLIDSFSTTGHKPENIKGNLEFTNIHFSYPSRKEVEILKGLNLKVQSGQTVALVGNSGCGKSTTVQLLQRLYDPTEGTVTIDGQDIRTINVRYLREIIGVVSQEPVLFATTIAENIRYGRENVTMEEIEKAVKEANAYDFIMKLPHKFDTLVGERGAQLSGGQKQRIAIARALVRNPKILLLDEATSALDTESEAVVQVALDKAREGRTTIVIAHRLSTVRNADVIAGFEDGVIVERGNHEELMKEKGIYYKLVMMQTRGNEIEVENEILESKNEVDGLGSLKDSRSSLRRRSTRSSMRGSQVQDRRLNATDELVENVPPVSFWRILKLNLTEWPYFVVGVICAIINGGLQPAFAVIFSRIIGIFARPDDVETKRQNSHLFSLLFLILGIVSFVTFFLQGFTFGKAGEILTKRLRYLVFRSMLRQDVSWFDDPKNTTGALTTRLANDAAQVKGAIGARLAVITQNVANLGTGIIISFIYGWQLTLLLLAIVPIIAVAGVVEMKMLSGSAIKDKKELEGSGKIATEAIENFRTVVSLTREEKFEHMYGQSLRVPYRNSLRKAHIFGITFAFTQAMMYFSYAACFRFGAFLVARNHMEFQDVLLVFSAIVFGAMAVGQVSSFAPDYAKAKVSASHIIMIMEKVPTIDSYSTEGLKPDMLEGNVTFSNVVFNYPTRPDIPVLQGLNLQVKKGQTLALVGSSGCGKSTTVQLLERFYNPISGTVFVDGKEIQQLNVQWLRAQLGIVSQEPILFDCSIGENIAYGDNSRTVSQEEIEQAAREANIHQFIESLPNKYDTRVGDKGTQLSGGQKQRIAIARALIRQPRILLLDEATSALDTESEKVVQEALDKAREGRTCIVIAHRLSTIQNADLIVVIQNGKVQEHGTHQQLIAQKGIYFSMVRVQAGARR

N[C@@H](CCC(=O)N[C@@H](CS)C(=O)NCC(=O)O)C(=O)O [Glutathione, glutathione]
effect on rhodamine permeation at 4° C. compared with 37° C. (4° C.): dramatically lower effect | permeation of rhodamine in the absorptive direction in the presence of the compound (37° C., apical to basolateral): significantly improved | permeation of rhodamine in the secretory direction in the presence of the compound (37° C., basolateral to apical): significantly reduced | efflux pump inhibitory effect (37° C., p<0.05, rhodamine 123): statistically significant
